# Active and inactive are the calls of the source.
# Columns and labels:
# [1] = molecular target: Bone morphogenetic protein receptor type-1A (Homo sapiens, UniProt P36894)
# [2] = molecular target: Cyclin-dependent kinase 4 (Homo sapiens, UniProt P11802)
# [3] = molecular target: Dual specificity tyrosine-phosphorylation-regulated kinase 1A (Homo sapiens, UniProt Q13627)
# Ephrin type-B receptor 4 = molecular target: T1, Ephrin type-B receptor 4 (Homo sapiens, UniProt P54760)
# T1 sequence (P54760 whole entry): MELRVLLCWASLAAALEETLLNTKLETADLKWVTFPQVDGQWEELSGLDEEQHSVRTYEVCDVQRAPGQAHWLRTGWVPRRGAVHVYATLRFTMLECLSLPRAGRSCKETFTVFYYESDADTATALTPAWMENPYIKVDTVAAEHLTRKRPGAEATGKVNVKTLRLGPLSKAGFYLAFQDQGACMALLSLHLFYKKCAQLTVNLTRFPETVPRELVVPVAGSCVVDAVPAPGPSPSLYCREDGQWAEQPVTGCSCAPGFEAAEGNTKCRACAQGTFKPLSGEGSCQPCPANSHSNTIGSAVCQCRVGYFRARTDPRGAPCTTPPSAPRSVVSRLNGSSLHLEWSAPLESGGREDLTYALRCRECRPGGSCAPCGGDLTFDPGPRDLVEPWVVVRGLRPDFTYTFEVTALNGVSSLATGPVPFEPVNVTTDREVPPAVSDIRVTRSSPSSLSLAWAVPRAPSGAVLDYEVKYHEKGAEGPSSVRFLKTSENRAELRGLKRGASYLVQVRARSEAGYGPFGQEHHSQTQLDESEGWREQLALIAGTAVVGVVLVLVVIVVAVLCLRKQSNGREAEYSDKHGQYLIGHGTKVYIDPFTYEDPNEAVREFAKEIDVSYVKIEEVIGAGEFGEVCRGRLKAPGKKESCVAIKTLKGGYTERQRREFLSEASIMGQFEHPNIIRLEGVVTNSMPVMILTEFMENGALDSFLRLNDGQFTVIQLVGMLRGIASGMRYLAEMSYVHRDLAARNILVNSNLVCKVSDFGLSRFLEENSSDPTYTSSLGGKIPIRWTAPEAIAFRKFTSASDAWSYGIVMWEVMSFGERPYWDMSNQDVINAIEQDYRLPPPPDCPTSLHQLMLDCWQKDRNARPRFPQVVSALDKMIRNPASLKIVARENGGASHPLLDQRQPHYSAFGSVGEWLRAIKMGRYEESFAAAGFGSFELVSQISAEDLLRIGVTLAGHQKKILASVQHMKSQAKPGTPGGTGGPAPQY
# [4] = molecular target: Glycogen synthase kinase-3 alpha (Homo sapiens, UniProt P49840)
# GTP-binding protein 4 = GTP-binding protein 4 (Homo sapiens, UniProt Q9BZE4)
# [5] = molecular target: Insulin-like growth factor 1 receptor (Homo sapiens, UniProt P08069)
# [6] = molecular target: T2, Mitogen-activated protein kinase kinase kinase 6 (Homo sapiens, UniProt O95382)
# T2 sequence (O95382 whole entry): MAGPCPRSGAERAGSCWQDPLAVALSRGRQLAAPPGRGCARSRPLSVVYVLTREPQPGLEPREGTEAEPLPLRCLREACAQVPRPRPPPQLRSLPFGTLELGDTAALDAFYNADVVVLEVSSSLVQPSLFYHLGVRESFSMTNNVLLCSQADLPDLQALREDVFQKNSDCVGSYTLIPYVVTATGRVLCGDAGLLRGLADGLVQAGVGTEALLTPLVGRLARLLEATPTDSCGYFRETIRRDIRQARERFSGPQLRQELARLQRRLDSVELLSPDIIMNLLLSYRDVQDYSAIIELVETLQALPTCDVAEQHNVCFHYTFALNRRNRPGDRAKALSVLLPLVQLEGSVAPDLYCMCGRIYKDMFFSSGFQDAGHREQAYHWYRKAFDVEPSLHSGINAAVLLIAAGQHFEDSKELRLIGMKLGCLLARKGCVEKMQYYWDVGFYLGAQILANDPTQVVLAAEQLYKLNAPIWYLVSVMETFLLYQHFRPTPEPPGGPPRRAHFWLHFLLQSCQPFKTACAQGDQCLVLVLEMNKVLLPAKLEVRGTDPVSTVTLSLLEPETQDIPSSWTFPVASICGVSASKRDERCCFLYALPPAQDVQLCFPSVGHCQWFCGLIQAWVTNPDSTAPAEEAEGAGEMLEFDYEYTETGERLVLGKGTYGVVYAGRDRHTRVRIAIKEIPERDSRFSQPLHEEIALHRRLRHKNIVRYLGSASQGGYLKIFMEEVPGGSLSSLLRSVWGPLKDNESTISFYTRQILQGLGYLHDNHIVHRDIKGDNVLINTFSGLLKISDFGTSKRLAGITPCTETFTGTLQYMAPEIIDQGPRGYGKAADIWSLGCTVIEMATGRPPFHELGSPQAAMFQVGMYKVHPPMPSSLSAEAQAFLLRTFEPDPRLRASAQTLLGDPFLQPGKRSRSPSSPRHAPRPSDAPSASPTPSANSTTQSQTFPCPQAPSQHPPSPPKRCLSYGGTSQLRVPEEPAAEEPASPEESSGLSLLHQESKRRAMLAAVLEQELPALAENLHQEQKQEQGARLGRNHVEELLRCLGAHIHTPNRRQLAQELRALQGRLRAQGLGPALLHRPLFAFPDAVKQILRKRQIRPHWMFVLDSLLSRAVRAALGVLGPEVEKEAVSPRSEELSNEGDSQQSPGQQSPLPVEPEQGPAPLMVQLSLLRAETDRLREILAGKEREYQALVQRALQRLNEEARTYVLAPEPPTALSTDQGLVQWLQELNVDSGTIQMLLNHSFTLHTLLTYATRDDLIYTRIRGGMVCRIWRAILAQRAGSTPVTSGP
# [7] = molecular target: Myosin light chain kinase, smooth muscle (Homo sapiens, UniProt Q15746)
# [8] = molecular target: Platelet-derived growth factor receptor beta (Homo sapiens, UniProt P09619)
# [9] = molecular target: Protein-tyrosine kinase 2-beta (Homo sapiens, UniProt Q14289)
# TGF-beta receptor type-2 = TGF-beta receptor type-2 (Homo sapiens, UniProt P37173)
# [10] = molecular target: Elongation factor Tu, mitochondrial (Homo sapiens, UniProt P49411)
# Also: in the data inactive means no Kd found up to 30 µM.
# Sequence of Cyclin-dependent kinase 4 (P11802 whole entry): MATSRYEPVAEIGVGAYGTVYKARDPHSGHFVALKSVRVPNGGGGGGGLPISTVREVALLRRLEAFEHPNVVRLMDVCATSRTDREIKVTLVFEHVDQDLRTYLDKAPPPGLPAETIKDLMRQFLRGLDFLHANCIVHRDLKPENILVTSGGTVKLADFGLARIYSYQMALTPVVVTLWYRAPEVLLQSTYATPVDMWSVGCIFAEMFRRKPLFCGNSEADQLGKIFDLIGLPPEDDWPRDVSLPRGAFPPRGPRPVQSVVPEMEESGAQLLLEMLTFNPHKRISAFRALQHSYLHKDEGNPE
# Sequence of Bone morphogenetic protein receptor type-1A (P36894 whole entry): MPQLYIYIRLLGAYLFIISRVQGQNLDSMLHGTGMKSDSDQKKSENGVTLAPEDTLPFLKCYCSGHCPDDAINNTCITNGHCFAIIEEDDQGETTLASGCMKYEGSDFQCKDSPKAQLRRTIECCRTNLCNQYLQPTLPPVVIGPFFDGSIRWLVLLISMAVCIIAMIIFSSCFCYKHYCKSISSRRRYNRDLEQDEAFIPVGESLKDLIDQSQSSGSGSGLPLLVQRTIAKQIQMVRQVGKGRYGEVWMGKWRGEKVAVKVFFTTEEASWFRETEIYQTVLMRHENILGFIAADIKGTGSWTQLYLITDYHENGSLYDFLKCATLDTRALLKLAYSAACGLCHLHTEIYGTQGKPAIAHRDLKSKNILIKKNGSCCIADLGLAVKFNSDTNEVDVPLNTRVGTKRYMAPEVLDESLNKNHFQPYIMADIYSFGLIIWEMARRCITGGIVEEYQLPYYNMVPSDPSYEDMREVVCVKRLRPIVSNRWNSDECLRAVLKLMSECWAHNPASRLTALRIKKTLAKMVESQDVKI
# Sequence of Glycogen synthase kinase-3 alpha (P49840 whole entry): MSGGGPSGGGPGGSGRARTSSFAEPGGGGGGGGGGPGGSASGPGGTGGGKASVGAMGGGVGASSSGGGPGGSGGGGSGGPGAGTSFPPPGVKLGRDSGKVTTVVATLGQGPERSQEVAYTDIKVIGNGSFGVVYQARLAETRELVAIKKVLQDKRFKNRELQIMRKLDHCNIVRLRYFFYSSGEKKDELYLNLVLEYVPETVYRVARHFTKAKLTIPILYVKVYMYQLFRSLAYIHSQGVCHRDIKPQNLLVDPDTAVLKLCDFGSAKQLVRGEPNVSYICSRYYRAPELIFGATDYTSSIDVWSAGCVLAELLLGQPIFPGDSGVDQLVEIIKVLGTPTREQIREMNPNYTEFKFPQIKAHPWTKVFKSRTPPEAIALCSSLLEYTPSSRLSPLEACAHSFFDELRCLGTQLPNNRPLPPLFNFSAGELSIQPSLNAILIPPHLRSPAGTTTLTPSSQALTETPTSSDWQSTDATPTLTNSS
# Sequence of Insulin-like growth factor 1 receptor (P08069 31-736 limits assumed): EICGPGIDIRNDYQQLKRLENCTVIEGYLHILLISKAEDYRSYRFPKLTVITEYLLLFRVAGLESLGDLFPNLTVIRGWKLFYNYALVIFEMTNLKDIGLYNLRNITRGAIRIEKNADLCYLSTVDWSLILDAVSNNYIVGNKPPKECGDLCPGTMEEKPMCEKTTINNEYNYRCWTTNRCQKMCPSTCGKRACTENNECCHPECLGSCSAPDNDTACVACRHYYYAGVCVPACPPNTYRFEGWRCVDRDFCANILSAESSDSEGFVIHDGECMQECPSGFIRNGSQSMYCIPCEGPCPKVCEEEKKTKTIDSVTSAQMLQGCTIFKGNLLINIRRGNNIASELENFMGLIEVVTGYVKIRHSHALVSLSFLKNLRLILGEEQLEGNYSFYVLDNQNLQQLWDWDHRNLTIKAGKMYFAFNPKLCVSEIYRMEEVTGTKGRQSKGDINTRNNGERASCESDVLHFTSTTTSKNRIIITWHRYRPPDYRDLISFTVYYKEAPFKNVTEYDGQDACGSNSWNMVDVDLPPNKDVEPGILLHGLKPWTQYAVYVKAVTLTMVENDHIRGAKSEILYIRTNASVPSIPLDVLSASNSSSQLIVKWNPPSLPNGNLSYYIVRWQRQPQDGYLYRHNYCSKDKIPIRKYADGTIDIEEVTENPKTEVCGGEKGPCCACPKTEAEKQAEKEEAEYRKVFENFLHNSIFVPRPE
# Sequence of Insulin-like growth factor 1 receptor (P08069 741-1367 limits assumed): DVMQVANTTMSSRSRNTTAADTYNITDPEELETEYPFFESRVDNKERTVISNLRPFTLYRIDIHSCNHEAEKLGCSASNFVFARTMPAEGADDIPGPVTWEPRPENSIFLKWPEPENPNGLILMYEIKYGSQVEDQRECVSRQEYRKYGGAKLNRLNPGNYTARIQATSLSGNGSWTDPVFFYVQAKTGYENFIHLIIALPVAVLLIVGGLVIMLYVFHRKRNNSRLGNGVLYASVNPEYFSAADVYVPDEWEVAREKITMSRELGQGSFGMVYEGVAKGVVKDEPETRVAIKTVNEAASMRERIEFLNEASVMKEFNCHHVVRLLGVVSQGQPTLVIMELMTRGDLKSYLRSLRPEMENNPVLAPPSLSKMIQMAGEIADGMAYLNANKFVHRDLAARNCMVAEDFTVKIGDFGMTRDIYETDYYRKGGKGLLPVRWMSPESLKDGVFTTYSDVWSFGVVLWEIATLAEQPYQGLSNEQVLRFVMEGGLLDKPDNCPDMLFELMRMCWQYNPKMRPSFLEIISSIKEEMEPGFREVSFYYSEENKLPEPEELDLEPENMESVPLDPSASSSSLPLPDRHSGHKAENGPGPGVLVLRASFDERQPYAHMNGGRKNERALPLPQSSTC
# Sequence of Myosin light chain kinase, smooth muscle (Q15746 whole entry): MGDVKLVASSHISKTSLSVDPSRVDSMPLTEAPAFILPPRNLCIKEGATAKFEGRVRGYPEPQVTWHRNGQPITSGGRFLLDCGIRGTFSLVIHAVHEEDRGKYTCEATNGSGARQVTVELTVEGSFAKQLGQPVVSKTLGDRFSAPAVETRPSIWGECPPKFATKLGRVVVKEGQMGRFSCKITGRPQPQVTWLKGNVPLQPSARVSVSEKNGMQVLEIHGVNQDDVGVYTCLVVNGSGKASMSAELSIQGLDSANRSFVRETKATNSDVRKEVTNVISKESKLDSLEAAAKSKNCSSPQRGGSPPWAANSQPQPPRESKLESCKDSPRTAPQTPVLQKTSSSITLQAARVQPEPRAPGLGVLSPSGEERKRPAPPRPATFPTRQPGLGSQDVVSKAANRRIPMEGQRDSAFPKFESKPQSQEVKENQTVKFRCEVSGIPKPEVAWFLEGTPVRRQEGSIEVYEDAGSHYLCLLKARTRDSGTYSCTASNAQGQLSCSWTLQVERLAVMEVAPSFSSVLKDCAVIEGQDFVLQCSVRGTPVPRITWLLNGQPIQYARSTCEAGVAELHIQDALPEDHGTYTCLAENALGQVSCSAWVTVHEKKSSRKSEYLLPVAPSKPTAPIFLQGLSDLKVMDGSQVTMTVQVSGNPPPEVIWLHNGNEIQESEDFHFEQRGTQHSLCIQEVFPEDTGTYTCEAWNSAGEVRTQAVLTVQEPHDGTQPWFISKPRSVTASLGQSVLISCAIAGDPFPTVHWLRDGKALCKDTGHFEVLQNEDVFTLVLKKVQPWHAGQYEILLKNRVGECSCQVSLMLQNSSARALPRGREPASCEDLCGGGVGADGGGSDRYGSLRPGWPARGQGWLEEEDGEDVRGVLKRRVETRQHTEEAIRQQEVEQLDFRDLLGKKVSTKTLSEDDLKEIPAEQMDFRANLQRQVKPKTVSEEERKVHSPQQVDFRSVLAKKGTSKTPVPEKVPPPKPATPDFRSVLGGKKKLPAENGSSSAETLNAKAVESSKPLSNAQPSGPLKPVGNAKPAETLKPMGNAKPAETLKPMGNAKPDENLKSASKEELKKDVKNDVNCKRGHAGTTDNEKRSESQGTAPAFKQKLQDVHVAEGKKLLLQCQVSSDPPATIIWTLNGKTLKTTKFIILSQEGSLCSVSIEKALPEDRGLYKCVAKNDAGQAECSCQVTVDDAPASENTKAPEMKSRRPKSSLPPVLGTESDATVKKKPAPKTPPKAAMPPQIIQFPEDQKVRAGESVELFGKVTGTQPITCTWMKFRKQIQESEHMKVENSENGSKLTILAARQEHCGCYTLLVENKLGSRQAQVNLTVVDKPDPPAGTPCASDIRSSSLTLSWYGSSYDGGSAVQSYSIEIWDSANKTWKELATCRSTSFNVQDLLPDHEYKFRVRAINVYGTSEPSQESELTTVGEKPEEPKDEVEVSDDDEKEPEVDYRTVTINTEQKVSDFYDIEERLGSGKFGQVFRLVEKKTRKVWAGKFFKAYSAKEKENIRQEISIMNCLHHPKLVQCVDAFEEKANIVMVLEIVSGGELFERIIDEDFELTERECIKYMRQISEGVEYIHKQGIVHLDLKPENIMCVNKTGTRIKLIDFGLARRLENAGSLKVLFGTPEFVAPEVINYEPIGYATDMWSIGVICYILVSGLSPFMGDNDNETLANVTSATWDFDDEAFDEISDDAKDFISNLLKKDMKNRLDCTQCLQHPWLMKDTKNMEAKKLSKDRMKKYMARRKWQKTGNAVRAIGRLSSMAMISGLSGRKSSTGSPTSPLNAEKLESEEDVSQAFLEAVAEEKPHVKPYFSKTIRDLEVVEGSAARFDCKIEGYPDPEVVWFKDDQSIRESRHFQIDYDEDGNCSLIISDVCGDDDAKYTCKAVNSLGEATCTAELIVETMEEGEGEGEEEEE
Kd [1],Kd [2],Kd [3],Kd (Ephrin type-B receptor 4),Kd [4],Kd (GTP-binding protein 4),Kd [5],Kd [6],Kd [7],Kd [8],Kd [9],Kd (TGF-beta receptor type-2),Kd [10],SMILES
> 30 µM (inactive),> 30 µM (inactive),> 30 µM (inactive),> 30 µM (inactive),> 30 µM (inactive),> 30 µM (inactive),> 30 µM (inactive),> 30 µM (inactive),> 30 µM (inactive),> 30 µM (inactive),> 30 µM (inactive),> 30 µM (inactive),> 30 µM (inactive),COc1cccc2cc(-c3nc([C@H]4CC[C@H](C(=O)O)CC4)n4ncnc(N)c34)[nH]c12 [OSI-027]
> 30 µM (inactive),> 30 µM (inactive),> 30 µM (inactive),> 30 µM (inactive),> 30 µM (inactive),> 30 µM (inactive),> 30 µM (inactive),> 30 µM (inactive),> 30 µM (inactive),> 30 µM (inactive),> 30 µM (inactive),> 30 µM (inactive),> 30 µM (inactive),O=S(=O)(c1cccc2c(O)nccc12)N1CCCNCC1 [HYDROXYFASUDIL]
> 30 µM (inactive),> 30 µM (inactive),> 30 µM (inactive),> 30 µM (inactive),> 30 µM (inactive),> 30 µM (inactive),> 30 µM (inactive),> 30 µM (inactive),> 30 µM (inactive),> 30 µM (inactive),> 30 µM (inactive),> 30 µM (inactive),> 30 µM (inactive),CC[C@@](C)(Nc1ccnc(-c2c[nH]c3ncccc23)n1)C(=O)NCC(F)(F)F [DECERNOTINIB]
> 30 µM (inactive),> 30 µM (inactive),> 30 µM (inactive),> 30 µM (inactive),> 30 µM (inactive),> 30 µM (inactive),> 30 µM (inactive),> 30 µM (inactive),> 30 µM (inactive),> 30 µM (inactive),> 30 µM (inactive),> 30 µM (inactive),> 30 µM (inactive),CCc1cc2c(cc1N1CCC(N3CCOCC3)CC1)C(C)(C)c1[nH]c3cc(C#N)ccc3c1C2=O [ALECTINIB]
> 30 µM (inactive),> 30 µM (inactive),> 30 µM (inactive),> 30 µM (inactive),> 30 µM (inactive),> 30 µM (inactive),> 30 µM (inactive),> 30 µM (inactive),> 30 µM (inactive),> 30 µM (inactive),> 30 µM (inactive),> 30 µM (inactive),> 30 µM (inactive),COc1cc(Nc2ncc(F)c(Nc3ccc4c(n3)N(COP(=O)(O)O)C(=O)C(C)(C)O4)n2)cc(OC)c1OC [FOSTAMATINIB]
> 30 µM (inactive),> 30 µM (inactive),> 30 µM (inactive),> 30 µM (inactive),> 30 µM (inactive),> 30 µM (inactive),> 30 µM (inactive),> 30 µM (inactive),> 30 µM (inactive),> 30 µM (inactive),> 30 µM (inactive),> 30 µM (inactive),> 30 µM (inactive),Cc1ccc(C(=O)Nc2ccc(Oc3cc4cnn(C)c4cc3-c3cn[nH]c3)c(F)c2)c(=O)n1-c1ccc(F)cc1 [MERESTINIB]
> 30 µM (inactive),> 30 µM (inactive),> 30 µM (inactive),> 30 µM (inactive),> 30 µM (inactive),> 30 µM (inactive),> 30 µM (inactive),> 30 µM (inactive),> 30 µM (inactive),> 30 µM (inactive),> 30 µM (inactive),> 30 µM (inactive),> 30 µM (inactive),O=C(NOC[C@H](O)CO)c1ccc(F)c(F)c1Nc1ccc(I)cc1F [MIRDAMETINIB]
> 30 µM (inactive),> 30 µM (inactive),> 30 µM (inactive),> 30 µM (inactive),> 30 µM (inactive),> 30 µM (inactive),> 30 µM (inactive),> 30 µM (inactive),> 30 µM (inactive),> 30 µM (inactive),> 30 µM (inactive),> 30 µM (inactive),> 30 µM (inactive),C[C@@H]1COC(Nc2ccc3ncnc(Nc4ccc(OCc5nccs5)c(Cl)c4)c3c2)=N1 [VARLITINIB]
> 30 µM (inactive),> 30 µM (inactive),> 30 µM (inactive),> 30 µM (inactive),> 30 µM (inactive),> 30 µM (inactive),> 30 µM (inactive),> 30 µM (inactive),> 30 µM (inactive),> 30 µM (inactive),> 30 µM (inactive),> 30 µM (inactive),> 30 µM (inactive),COc1cc2nccc(Oc3ccc(NC(=O)C4(C(=O)Nc5ccc(F)cc5)CC4)cc3)c2cc1OC [CABOZANTINIB]
> 30 µM (inactive),> 30 µM (inactive),> 30 µM (inactive),> 30 µM (inactive),> 30 µM (inactive),> 30 µM (inactive),> 30 µM (inactive),> 30 µM (inactive),> 30 µM (inactive),> 30 µM (inactive),> 30 µM (inactive),> 30 µM (inactive),> 30 µM (inactive),CNC(=O)c1cccc(-c2ccc3c(N4CCOC[C@@H]4C)nc(N4CCOC[C@@H]4C)nc3n2)c1 [VISTUSERTIB]
> 30 µM (inactive),> 30 µM (inactive),0.922 µM (active),> 30 µM (inactive),3.4 µM (active),> 30 µM (inactive),> 30 µM (inactive),> 30 µM (inactive),> 30 µM (inactive),> 30 µM (inactive),> 30 µM (inactive),> 30 µM (inactive),> 30 µM (inactive),COc1ccc(-c2ccc3ncc4c(c3c2)n(-c2ccc(N3CCNCC3)c(C(F)(F)F)c2)c(=O)n4C)cn1 [BGT-226 FREE BASE]
